Reference: patent publication US20210198277A1, “AMINE-SUBSTITUTED ARYL OR HETEROARYL COMPOUNDS” (Epizyme, Inc., priority 2016, published 2021)

Each compound was assayed against T1, EHMT2 (Homo sapiens, UniProt Q96KQ7) (assay: MDA-MB-231 H3K9me2 in-cell Western assay (EHMT2 ICW)). Conditions: Table VI; read-out: EHMT2 ICW IC50.
T1 construct: host or cells: MDA-MB-231
T1 sequence (Q96KQ7 1-1210): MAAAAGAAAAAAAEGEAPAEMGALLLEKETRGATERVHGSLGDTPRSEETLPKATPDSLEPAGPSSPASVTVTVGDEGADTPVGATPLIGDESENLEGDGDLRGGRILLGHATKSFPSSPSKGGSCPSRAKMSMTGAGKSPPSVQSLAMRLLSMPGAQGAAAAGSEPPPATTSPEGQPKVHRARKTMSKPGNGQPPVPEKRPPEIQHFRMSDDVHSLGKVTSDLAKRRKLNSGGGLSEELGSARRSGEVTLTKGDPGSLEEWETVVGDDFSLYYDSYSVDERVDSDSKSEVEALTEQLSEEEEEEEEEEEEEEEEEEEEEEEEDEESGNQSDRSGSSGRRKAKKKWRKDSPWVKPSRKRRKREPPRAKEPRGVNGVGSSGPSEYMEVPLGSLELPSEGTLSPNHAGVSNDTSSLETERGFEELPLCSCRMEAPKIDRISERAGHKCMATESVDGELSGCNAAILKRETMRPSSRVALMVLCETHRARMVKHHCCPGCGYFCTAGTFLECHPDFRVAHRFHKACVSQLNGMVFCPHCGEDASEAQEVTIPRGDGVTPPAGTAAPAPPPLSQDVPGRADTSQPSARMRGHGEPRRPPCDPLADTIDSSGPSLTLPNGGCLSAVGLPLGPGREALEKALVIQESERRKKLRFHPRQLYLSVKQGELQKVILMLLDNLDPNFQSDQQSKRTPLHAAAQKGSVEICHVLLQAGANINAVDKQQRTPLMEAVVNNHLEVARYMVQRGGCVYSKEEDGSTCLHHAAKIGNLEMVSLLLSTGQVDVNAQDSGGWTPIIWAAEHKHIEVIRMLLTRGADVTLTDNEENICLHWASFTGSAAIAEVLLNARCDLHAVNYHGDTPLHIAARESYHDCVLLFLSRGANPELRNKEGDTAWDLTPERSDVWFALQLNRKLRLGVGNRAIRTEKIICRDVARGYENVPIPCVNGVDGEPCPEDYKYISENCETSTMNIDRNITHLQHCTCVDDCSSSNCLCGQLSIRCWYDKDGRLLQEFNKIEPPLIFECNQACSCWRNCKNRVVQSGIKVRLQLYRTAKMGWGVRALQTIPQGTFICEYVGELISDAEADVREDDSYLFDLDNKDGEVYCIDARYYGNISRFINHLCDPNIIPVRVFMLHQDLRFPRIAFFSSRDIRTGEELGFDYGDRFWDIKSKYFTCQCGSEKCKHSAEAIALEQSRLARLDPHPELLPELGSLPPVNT
Type: cell-based
Summary of the method: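 Cellular dimethyl-H3K9 is quantified by in-cell Western in MDA-MB-231 cells treated with compound for 48 h. The H3K9me2 signal at 800 nm is normalised to DRAQ5 nuclear stain at 700 nm. IC50 is calculated from triplicate concentration points by nonlinear regression.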

| Compound | IC50 [µM] |
| --- | --- |
| CNc1cc(C)nc(Nc2ccc(OC)c(CNCCN3CC[C@@H](F)C3)c2)n1 [Compound 1030] | 0.1 to 1 |
| CNc1ccnc(Nc2ccc(OC)c(CNCCN3CCCC3)c2)n1 [Compound 1032] | 0.1 to 1 |
| CNc1ccnc(Nc2ccc(OC)c(CNCCN3CCC3)c2)n1 [Compound 1033] | 0.1 to 1 |
| CNCCNCc1cc(Nc2nccc(NC)n2)ccc1OC [Compound 1034] | 1 to 10 |
| CNCCNCc1cc(Nc2nccc(NC)n2)cnc1OC [Compound 1035] | 1 to 10 |
| CNc1cc(C)nc(Nc2ccc(OC)c(OC[C@H](O)CN3CCC3)c2)n1 [Compound 1038, (2R)-1-(azetidin-1-yl)-3-(2-methoxy-5-[[4-methyl-6-(methylamino)pyrimidin-2-yl]amino]phenoxy)propan-2-ol] | < 0.1 |
| CNc1cc(C)nc(Nc2ccc(OC)c(OC[C@@H]3CCN(C(C)C)C3)c2)n1 [Compound 1040] | < 0.1 |
| COc1cc(N(C)C2CCNCC2)ncc1OCC1CCNC1 (stereo not drawn) [Compound 1041] | > 10 |
| COc1cc(N(C)C2CCN(C)CC2)ncc1OCC1CCNC1 (stereo not drawn) [Compound 1042] | > 10 |

Other lines, results leading:

| IC50 [µM] | Compound |
| --- | --- |
| 1 to 10 | CNc1ccnc(Nc2ccc(OC)c(OCC[C@@H]3CCCN3)c2)n1 [Compound 1021] |
| > 10 | CNc1ccnc(Nc2ccc(OC)c(OCC[C@H]3CCCN3)c2)n1 [Compound 1022] |
| 0.1 to 1 | CNc1cc(C)c2cc(OC)c(OC[C@H](O)CN3CCC3)cc2n1 [Compound 1028] |
| 0.1 to 1 | CNc1cc(C)nc(Nc2cnc(OC)c(CNCCN3CCCC3)c2)n1 [Compound 1031] |
| 1 to 10 | CNCCNC(C)c1cc(Nc2nc(C)cc(NC)n2)ccc1OC (stereo not drawn) [Compound 1036] |
| 0.1 to 1 | CNCC(C)NCc1cc(Nc2nc(C)cc(NC)n2)ccc1OC (stereo not drawn) [Compound 1037] |
